The experiment concerns the target T1, human CCR6 (Homo sapiens, UniProt P51684).
T1 construct: expressed in transfected cells; host or cells: HEK-293
T1 sequence (P51684 1-374): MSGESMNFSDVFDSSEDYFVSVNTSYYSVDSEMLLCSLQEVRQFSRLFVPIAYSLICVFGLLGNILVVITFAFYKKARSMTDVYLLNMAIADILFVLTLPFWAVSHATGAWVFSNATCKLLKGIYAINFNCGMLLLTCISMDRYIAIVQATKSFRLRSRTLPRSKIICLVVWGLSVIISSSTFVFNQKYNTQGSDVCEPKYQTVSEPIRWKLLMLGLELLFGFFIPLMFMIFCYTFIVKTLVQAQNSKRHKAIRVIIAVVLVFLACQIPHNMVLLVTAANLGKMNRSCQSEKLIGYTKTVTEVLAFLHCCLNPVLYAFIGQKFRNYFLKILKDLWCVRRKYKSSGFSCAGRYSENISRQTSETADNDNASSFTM
Kind of experiment: FLIPR assay (inhibition of CCL20-induced calcium signal). It is filed as cell-based. The note with it: HEK-293 cells expressing human CCR6; mean values where determined several times; read-out: FLIPR IC50. How it is done: FLIPR assay: The bioactivity of compounds is tested in a fluorometric imaging plate reader (FLIPR: Molecular Devices) using engineered HEK-293 cells expressing the human CCR6 (GenBank: AY242126). Frozen cells are plated on Poly-L-Lysine precoated 384-well plates 2 days prior to bioassay in DMEM medium supplemented with 10% FCS and 1% Penicillin-Streptomycin. […] This buffer, but lacking the dye, is also used for washing and compound dilution steps (assay buffer). Cells are washed free of excess dye with a wash-station (Biotek), leaving 40 microliter of assay buffer at the end. Cells were incubated for 15 minutes at room temperature in the dark, before adding compounds. Stock solutions of test compounds are made up at a concentration of 10 mM in DMSO, and serially diluted first in DMSO and then transferred in assay buffer to concentrations required for inhibition dose response curves. After a 45-minute incubation period in assay buffer at room temperature, 10 microliters of each compound dilution are transferred from a compound plate to the plate containing the recombinant cells in the FLIPR instrument according to the manufacturer's instructions. After cells and compounds were preincubated for 30 minutes at room temperature in the dark, 10 microliter agonist CCL20 (Peprotech) at a final concentration of 10 nM is added, again using the FLIPR instrument. Changes in fluorescence are monitored before and after addition of the test compounds and agonist. Emission peak values above base level after CCL20 addition are exported after base line subtraction.
The calculated IC50 values may fluctuate depending on the daily assay performance. Fluctuations of this kind are known to those skilled in the art.
Turning to `CC1([C@](O)(c2ccc(OC(F)(F)F)cc2)c2cncc(N3CCCC3)c2)CN(CCF)C1` [Example 10, (R)-[1-(2-Fluoro-ethyl)-3-methyl-azetidin-3-yl]-(5-pyrrolidin-1-yl-pyridin-3-yl)-(4-trifluoromethoxy-phenyl)-methanol], the IC50 (usually the concentration that gives 50% inhibition) was determined as 64.1 nM.

Consider `CC1([C@](O)(c2ccc(OC(F)(F)F)cc2)c2cncc(N3CCCC3)c2)CN(CC(F)F)C1` [Example 11, (R)-[1-(2,2-Difluoro-ethyl)-3-methyl-azetidin-3-yl]-(5-pyrrolidin-1-yl-pyridin-3-yl)-(4-trifluoromethoxy-phenyl)-methanol], for which the 50% inhibitory concentration (IC50) was 130 nM.

Regarding `CC(C)(C)N1CC(C)([C@](O)(c2ccc(OC(F)(F)F)cc2)c2cncc(N3CCCC3)c2)C1` [Example 12, (R)-(1-tert-Butyl-3-methyl-azetidin-3-yl)-(5-pyrrolidin-1-yl-pyridin-3-yl)-(4-trifluoromethoxy-phenyl)-methanol], the IC50 turned out to be 73.5 nM.

For the compound `COCC#Cc1cncc(C(O)(c2ccc(C(C)C)cc2)C2(C)CN(C)C2)c1` (stereo not drawn) [Example 13, (1,3-Dimethyl-azetidin-3-yl)-(4-isopropyl-phenyl)-[5-(3-methoxy-prop-1-ynyl)-pyridin-3-yl]-methanol], the IC50 was found to be 43.5 nM.

Take `CC(C)c1ccc([C@](O)(c2cncc(CC#CO)c2)C2(C)CN(C)C2)cc1` [Example 14, 3-{5-[(R)-(1,3-Dimethyl-azetidin-3-yl)-hydroxy-(4-isopropyl-phenyl)-methyl]-pyridin-3-yl}-prop-1-yn-1-ol]: the IC50 was 70.6 nM.

Take `CC(C)c1ccc([C@](O)(c2cncc(C#CC(C)(C)O)c2)C2(C)CN(C)C2)cc1` [Example 15, 4-{5-[(R)-(1,3-Dimethyl-azetidin-3-yl)-hydroxy-(4-isopropyl-phenyl)-methyl]-pyridin-3-yl}-2-methyl-but-3-yn-2-ol]: the concentration for half-maximal inhibition (IC50) stood at 80.8 nM.

On to `CC(C)c1ccc([C@](O)(c2cncc(C#C[C@@H](C)O)c2)C2(C)CN(C)C2)cc1` [Example 16], for which the half-maximal inhibitory concentration (IC50) was 52 nM.

For the compound `CC(C)c1ccc([C@](O)(c2cncc(C#C[C@H](C)O)c2)C2(C)CN(C)C2)cc1` [Example 17], the IC50 was 53.5 nM.

`CC(C)c1ccc([C@](O)(c2cncc(C#CC3(O)CCCC3)c2)C2(C)CN(C)C2)cc1` [Example 18]: the IC50 was 33.5 nM.

With `CC(C)c1ccc([C@](O)(c2cncc(C#CC3(O)CC3)c2)C2(C)CN(C)C2)cc1` [Example 19], the IC50 is 44.9 nM.

On to `CC(C)c1ccc([C@](O)(c2cncc(C#CC3(O)CN(C(=O)OC(C)(C)C)C3)c2)C2(C)CN(C)C2)cc1` [Example 20], for which the half-maximal inhibitory concentration (IC50) stood at 23 nM.

Turning to `CC(C)c1ccc([C@](O)(c2cncc(C#CC3(O)CCC3)c2)C2(C)CN(C)C2)cc1` [Example 21], the IC50 worked out at 47.9 nM.

As to `CC(C)c1ccc([C@](O)(c2cncc(C#CCCO)c2)C2(C)CN(C)C2)cc1` [Example 22], the IC50 was determined as 126 nM.

Consider `CC(C)c1ccc([C@](O)(c2cncc(C#Cc3cnn(C)c3)c2)C2(C)CN(C)C2)cc1` [Example 23], for which the concentration for half-maximal inhibition (IC50) was found to be 46.8 nM.

As for `CC(C)c1ccc([C@](O)(c2cncc(C#CC(O)c3ccccc3)c2)C2(C)CN(C)C2)cc1` (stereo partly drawn) [Example 24], the IC50 turned out to be 6.44 nM.

As to `CC(C)c1ccc([C@](O)(c2cncc(C#CC(C)(O)c3ccccc3)c2)C2(C)CN(C)C2)cc1` (stereo partly drawn) [Example 25], the IC50 was 7.69 nM.

For `CC(C)c1ccc([C@](O)(c2cncc(C#CC(O)C(C)C)c2)C2(C)CN(C)C2)cc1` (stereo partly drawn) [Example 26], the half-maximal inhibitory concentration (IC50) was found to be 13 nM.

As for `CC(C)c1ccc([C@](O)(c2cncc(C#CC3(O)CCOCC3)c2)C2(C)CN(C)C2)cc1` [Example 27], the IC50 was determined as 43.7 nM.

As for `CC(C)c1ccc([C@](O)(c2cncc(C#CC(O)C3CCOCC3)c2)C2(C)CN(C)C2)cc1` (stereo partly drawn) [Example 28], the IC50 stood at 44.6 nM.

Regarding `Cc1nn(C)cc1C(O)C#Cc1cncc([C@@](O)(c2ccc(C(C)C)cc2)C2(C)CN(C)C2)c1` (stereo partly drawn) [Example 29], the half-maximal inhibitory concentration (IC50) worked out at 85.5 nM.

Regarding `CC(C)c1ccc([C@](O)(c2cncc(C#CC3CCOCC3)c2)C2(C)CN(C)C2)cc1` [Example 30], the half-maximal inhibitory concentration (IC50) is 33.9 nM.

Turning to `Cc1nc(C(O)C#Cc2cncc([C@@](O)(c3ccc(C(C)C)cc3)C3(C)CN(C)C3)c2)cs1` (stereo partly drawn) [Example 31], the concentration for half-maximal inhibition (IC50) was determined as 81.2 nM.

As to `CC(C)c1ccc([C@](O)(c2cncc(C#CC(C)(O)c3cccc(F)c3)c2)C2(C)CN(C)C2)cc1` (stereo partly drawn) [Example 32], the IC50 is 18.7 nM.

As to `COc1ccc(C(C)(O)C#Cc2cncc([C@@](O)(c3ccc(C(C)C)cc3)C3(C)CN(C)C3)c2)cc1` (stereo partly drawn) [Example 33], the IC50 came out at 20.8 nM.

Take `COc1ccccc1C(C)(O)C#Cc1cncc([C@@](O)(c2ccc(C(C)C)cc2)C2(C)CN(C)C2)c1` (stereo partly drawn) [Example 34]: the 50% inhibitory concentration (IC50) is 21.1 nM.

Consider `CC(C)c1ccc([C@](O)(c2cncc(C#CC(C)(O)c3ccn(C)n3)c2)C2(C)CN(C)C2)cc1` (stereo partly drawn) [Example 35], for which the IC50 was found to be 141 nM.

With `Cc1nc(C(C)(O)C#Cc2cncc([C@@](O)(c3ccc(C(C)C)cc3)C3(C)CN(C)C3)c2)cs1` (stereo partly drawn) [Example 36], the half-maximal inhibitory concentration (IC50) is 61.7 nM.

For `COc1cccc(C(C)(O)C#Cc2cncc([C@@](O)(c3ccc(C(C)C)cc3)C3(C)CN(C)C3)c2)n1` (stereo partly drawn) [Example 37], the IC50 worked out at 20.7 nM.

`CC(C)c1ccc([C@](O)(c2cncc(C#CC(C)(O)c3ncccn3)c2)C2(C)CN(C)C2)cc1` (stereo partly drawn) [Example 38]: the IC50 turned out to be 130 nM.

On to `Cc1cc(C(C)(O)C#Cc2cncc([C@@](O)(c3ccc(C(C)C)cc3)C3(C)CN(C)C3)c2)nn1C` (stereo partly drawn) [Example 39], for which the 50% inhibitory concentration (IC50) was 76.5 nM.

As to `Cc1cc(C(C)(O)C#Cc2cncc(C(O)(c3ccc(C(C)C)cc3)C3(C)CN(C)C3)c2)ncn1` (stereo not drawn) [Example 40], the 50% inhibitory concentration (IC50) was found to be 92.5 nM.

Regarding `Cc1cc(C(O)C#Cc2cncc([C@@](O)(c3ccc(C(C)C)cc3)C3(C)CN(C)C3)c2)nn1C` (stereo partly drawn) [Example 41], the IC50 came out at 133 nM.

On to `CC(C)c1ccc([C@](O)(c2cncc(C#CC3(O)CCCc4cccnc43)c2)C2(C)CN(C)C2)cc1` (stereo partly drawn) [Example 42], for which the IC50 is 41.5 nM.

For `CC(C)c1ccc([C@](O)(c2cncc(C#CC3(O)CCc4cccnc43)c2)C2(C)CN(C)C2)cc1` (stereo partly drawn) [Example 43], the concentration for half-maximal inhibition (IC50) is 55.9 nM.

For the compound `CCC(O)(C#Cc1cncc([C@@](O)(c2ccc(C(C)C)cc2)C2(C)CN(C)C2)c1)c1ccccn1` (stereo partly drawn) [Example 44], the IC50 stood at 63.3 nM.

In the case of `CCC(O)(C#Cc1cncc([C@@](O)(c2ccc(C(C)C)cc2)C2(C)CN(C)C2)c1)c1cccc(OC)n1` (stereo partly drawn) [Example 45], the concentration for half-maximal inhibition (IC50) is 32.8 nM.

For the compound `CC(C)C(=O)N1CC(O)(C#Cc2cncc([C@@](O)(c3ccc(C(C)C)cc3)C3(C)CN(C)C3)c2)C1` [Example 46], the 50% inhibitory concentration (IC50) was 145 nM.

For the compound `CC(C)c1ccc([C@](O)(c2cncc(C#Cc3cc4ccccc4[nH]3)c2)C2(C)CN(C)C2)cc1` [Example 47, (R)-(1,3-Dimethyl-azetidin-3-yl)-[5-(1H-indol-2-ylethynyl)-pyridin-3-yl]-(4-isopropyl-phenyl)-methanol], the IC50 was 35 nM.

Regarding `COCCCc1cncc(C(O)(c2ccc(C(C)C)cc2)C2(C)CN(C)C2)c1` (stereo not drawn) [Example 48, (1,3-Dimethyl-azetidin-3-yl)-(4-isopropyl-phenyl)-[5-(3-methoxy-propyl)-pyridin-3-yl]-methanol], the half-maximal inhibitory concentration (IC50) was found to be 100 nM.

As for `CC(C)c1ccc([C@](O)(c2cncc(CCCO)c2)C2(C)CN(C)C2)cc1` [Example 49], the concentration for half-maximal inhibition (IC50) was found to be 219 nM.

Consider `CC(C)c1ccc([C@](O)(c2cncc(CCC(C)(C)O)c2)C2(C)CN(C)C2)cc1` [Example 50], for which the IC50 came to 90.2 nM.

Regarding `CC(C)c1ccc([C@](O)(c2cncc(CC[C@H](C)O)c2)C2(C)CN(C)C2)cc1` [Example 51], the concentration for half-maximal inhibition (IC50) was found to be 134 nM.

Turning to `CC(C)c1ccc([C@](O)(c2cncc(CC[C@@H](C)O)c2)C2(C)CN(C)C2)cc1` [Example 52], the IC50 worked out at 200 nM.

In the case of `CC(C)c1ccc([C@](O)(c2cncc(CCC3(O)CCCC3)c2)C2(C)CN(C)C2)cc1` [Example 53], the IC50 was determined as 46.3 nM.

For `CC(C)c1ccc([C@](O)(c2cncc(CCC3(O)CC3)c2)C2(C)CN(C)C2)cc1` [Example 54], the IC50 amounted to 66.9 nM.

For `CC(C)c1ccc([C@](O)(c2cncc(CCC3(O)CN(C(=O)OC(C)(C)C)C3)c2)C2(C)CN(C)C2)cc1` [Example 55], the IC50 came out at 65.8 nM.

Consider `CC(C)c1ccc([C@](O)(c2cncc(CCC3(O)CCC3)c2)C2(C)CN(C)C2)cc1` [Example 56], for which the concentration for half-maximal inhibition (IC50) turned out to be 61 nM.

Take `CC(C)c1ccc([C@](O)(c2cncc(CCCCO)c2)C2(C)CN(C)C2)cc1` [Example 57]: the concentration for half-maximal inhibition (IC50) is 349 nM.

These data come from patent publication US12617773B2, “Azetidin-3-ylmethanol derivatives as CCR6 receptor modulators” (Idorsia Pharmaceuticals Ltd, priority 2020, dated 2026).
